Experiment: xn = mol fraction of the nth substance listed
Conditions: 100 kPa

CCCC[n+]1ccn(C)c1.F[B-](F)(F)F + CN(C)C=O
viscosity [mPa·s]
Conditions | x1 = 0.1008 | x1 = 0.2015 | x1 = 0.3022 | x1 = 0.4024 | x1 = 0.502 | x1 = 0.6024 | x1 = 0.7019 | x1 = 0.8015 | x1 = 0.9002 | x1 = 1
303.15 K | – | 2.598 | 4.414 | 7.178 | 11.55 | 17.99 | 26.92 | 39.91 | 58.87 | 85.4
313.15 K | 1.298 | 2.198 | 3.585 | 5.632 | 8.76 | 13.13 | 19.05 | – | 38.08 | –
323.15 K | 1.142 | 1.892 | – | 4.587 | 6.849 | 10 | – | 19.37 | 26.77 | 36.27
333.15 K | 1.012 | 1.631 | 2.53 | 3.873 | 5.565 | 7.857 | – | 14.43 | 19.11 | 25.46

CN(C)C=O + CCCC[n+]1ccn(C)c1.F[B-](F)(F)F
x2 = 0
Conditions | viscosity [mPa·s]
303.15 K | 0.77
313.15 K | 0.688
323.15 K | 0.619
